Like-named read-outs stand apart in the source and are kept apart here.
Target: T1, Full length wild-type cereblon CRBN (Homo sapiens, UniProt Q96SW2)
T1 construct: Full length wild-type cereblon CRBN (80.0 nM, 10 μL) was incubated in assay buffer
Assay: Fluorescence polarization (FP) assay, cereblon binding
From the text: Compound activity was monitored in a fluorescence polarization (FP) homogeneous assay using 1-[5-({2-[2-(2-{[2-(2,6-dioxopiperidin-3-yl)-1,3-dioxo-2,3-dihydro-1H-isoindol-4-yl]oxy}acetamido)ethoxy]ethyl}carbamoyl)pentyl]-3,3-dimethyl-2-[(1E,3E)-5-[(2E)-1,3,3-trimethyl-5-sulfo-2,3-dihydro-1H-indol-2-ylidene]penta-1,3-dien-1-yl]-3H-indol-1-ium-5-sulfonate as a fluorescent probe. Unless otherwise stated, all reagents were purchased from Sigma Aldrich. […] Full length wild-type cereblon CRBN (80.0 nM, 10 μL) was incubated in assay buffer containing 20 mM HEPES (pH 8.0), […], 0.5 mM TCEP and 0.05% Tween 20 in the presence or absence of compound (300 nL). Inhibitors were stored as 10 mM DMSO stocks in an inert environment (low humidity, dark, low oxygen, room temperature) using the Storage Pod System. […] Following incubation at room temperature for 30 min, the assay was initiated by dispensing the probe to a final concentration of […] (2.5 nL of a 20 μM stock) using the Echo E5XX. […] The FP signal was subsequently normalized to the no-compound control (i.e., DMSO). Analysis and IC50 values were derived using Dotmatics (Dotmatics UK) software.

[1] = bounds stated in the text lists b2059-b2061, read-out: IC50 value
[2] = cereblon binding, class code, read-out: rFP IC50

T1 sequence (Q96SW2 whole entry): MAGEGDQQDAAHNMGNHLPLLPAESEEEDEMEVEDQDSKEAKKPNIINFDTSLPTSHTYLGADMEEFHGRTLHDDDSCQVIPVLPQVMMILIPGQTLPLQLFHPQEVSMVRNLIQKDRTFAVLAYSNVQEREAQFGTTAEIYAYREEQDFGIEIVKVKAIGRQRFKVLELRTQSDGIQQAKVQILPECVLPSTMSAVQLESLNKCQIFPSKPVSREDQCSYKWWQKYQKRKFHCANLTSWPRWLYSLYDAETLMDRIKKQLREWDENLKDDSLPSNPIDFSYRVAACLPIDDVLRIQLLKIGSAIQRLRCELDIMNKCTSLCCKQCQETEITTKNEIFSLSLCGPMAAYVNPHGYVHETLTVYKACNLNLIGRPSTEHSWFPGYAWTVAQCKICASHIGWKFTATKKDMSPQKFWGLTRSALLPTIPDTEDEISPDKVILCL

Row | Structure (SMILES) | IC50 [1] | IC50 [2]
1 | Cc1c(Cl)cc(NC(=O)OCc2ccc3c(c2)C(=O)N(C2CCC(=O)NC2=O)C3)cc1CN1CCOCC1 (stereo not shown) [Compound 2] | < 1.7 µM | 0.5 to 1.1 µM
2 | O=C1CCC(N2Cc3ccc(COC(=O)Nc4cc(CN5CCOCC5)cc(OC(F)(F)F)c4)cc3C2=O)C(=O)N1 (stereo not shown) [Compound 4] | < 1.7 µM | 0.5 to 1.1 µM
3 | O=C1CCC(N2Cc3ccc(COC(=O)Nc4cccc(OC(F)F)c4)cc3C2=O)C(=O)N1 (stereo not shown) [Compound 5] | < 1.7 µM | 1.1 to 1.7 µM
4 | Cc1cc(NC(=O)OCc2ccc3c(c2)C(=O)N(C2CCC(=O)NC2=O)C3)cc(C)n1 (stereo not shown) [Compound 7] | < 1.7 µM | 0.5 to 1.1 µM
5 | Cc1cc(C)cc(NC(=O)OCc2ccc3c(c2)C(=O)N(C2CCC(=O)NC2=O)C3)c1 (stereo not shown) [Compound 8] | < 1.7 µM | 0.5 to 1.1 µM
6 | O=C1CCC(N2Cc3ccc(COC(=O)Nc4ccc(F)c(Cl)c4)cc3C2=O)C(=O)N1 (stereo not shown) [Compound 9] | < 1.7 µM | 1.1 to 1.7 µM
7 | O=C1CCC(N2Cc3ccc(COC(=O)Nc4cc(F)cc(Cl)c4)cc3C2=O)C(=O)N1 (stereo not shown) [Compound 12] | < 1.7 µM | 1.1 to 1.7 µM
8 | Cc1c(Cl)cc(NC(=O)OCc2ccc3c(c2)C(=O)N(C2CCC(=O)NC2=O)C3)cc1CN1CC2CC1CO2 (stereo not shown) [Compound 13] | < 1.7 µM | 0.5 to 1.1 µM
9 | COc1ccc(Cl)cc1NC(=O)OCc1ccc2c(c1)C(=O)N(C1CCC(=O)NC1=O)C2 (stereo not shown) [Compound 14] | < 1.7 µM | 1.1 to 1.7 µM
10 | O=C1CCC(N2Cc3ccc(COC(=O)Nc4cc(Cl)cc(OCC5CCNC5)c4)cc3C2=O)C(=O)N1 (stereo not shown) [Compound 16] | < 1.1 µM | 
11 | O=C1CCC(N2Cc3ccc(COC(=O)Nc4ccc5c(c4)OCC5)cc3C2=O)C(=O)N1 (stereo not shown) [Compound 18] | < 1.7 µM | 0.5 to 1.1 µM
12 | O=C1CCC(N2Cc3ccc(COC(=O)Nc4cc(Cl)cc(OC5CCNC5)c4)cc3C2=O)C(=O)N1 (stereo not shown) [Compound 20] | < 1.7 µM | 1.1 to 1.7 µM
13 | O=C1CCC(N2Cc3ccc(COC(=O)N4CCCCC4)cc3C2=O)C(=O)N1 (stereo not shown) [Compound 23] | < 1.1 µM | 
14 | Cc1ccc(NC(=O)OCc2ccc3c(c2)C(=O)N(C2CCC(=O)NC2=O)C3)cc1OC(F)F (stereo not shown) [Compound 24] | < 1.7 µM | 0.5 to 1.1 µM
15 | Cc1c(CN2CCOCC2)cc(NC(=O)OCc2ccc3c(c2)C(=O)N(C2CCC(=O)NC2=O)C3)cc1OC(F)F (stereo not shown) [Compound 25] | < 1.7 µM | 0.5 to 1.1 µM
16 | O=C1CCC(N2Cc3ccc(COC(=O)N4CCCC4)cc3C2=O)C(=O)N1 (stereo not shown) [Compound 26] | < 1.7 µM | 0.5 to 1.1 µM
17 | O=C1CCC(N2Cc3ccc(COC(=O)NC4CCCCC4)cc3C2=O)C(=O)N1 (stereo not shown) [Compound 28] | < 1.7 µM | 1.1 to 1.7 µM
18 | O=C1CCC(N2Cc3ccc(COC(=O)NC4CCCC4)cc3C2=O)C(=O)N1 (stereo not shown) [Compound 29] | < 1.7 µM | 0.5 to 1.1 µM
19 | O=C1CCC(N2Cc3ccc(COC(=O)N4CCC(Oc5ccccc5)C4)cc3C2=O)C(=O)N1 (stereo not shown) [Compound 30] | < 1.1 µM | 
20 | CCOc1cc(NC(=O)OCc2ccc3c(c2)C(=O)N(C2CCC(=O)NC2=O)C3)ccc1C (stereo not shown) [Compound 33] | < 0.5 µM | 0.5 to 1.1 µM
21 | O=C1CCC(N2Cc3ccc(COC(=O)NC4CCN(c5ccccn5)CC4)cc3C2=O)C(=O)N1 (stereo not shown) [Compound 35] | < 1.1 µM | 
22 | O=C1CCC(N2Cc3ccc(COC(=O)N4CCN(c5ccccc5)CC4)cc3C2=O)C(=O)N1 (stereo not shown) [Compound 36] | < 1.1 µM | 
23 | COc1cc(Cl)ccc1NC(=O)OCc1ccc2c(c1)C(=O)N(C1CCC(=O)NC1=O)C2 (stereo not shown) [Compound 38] | < 1.7 µM | 0.5 to 1.1 µM
24 | O=C1CCC(N2Cc3ccc(COC(=O)Nc4ccc(C5CC5)cc4)cc3C2=O)C(=O)N1 (stereo not shown) [Compound 39] | < 1.7 µM | 0.5 to 1.1 µM
25 | CN1CCC(COc2cc(Cl)cc(NC(=O)OCc3ccc4c(c3)C(=O)N(C3CCC(=O)NC3=O)C4)c2)C1 (stereo not shown) [Compound 40] | < 1.1 µM | 
26 | Cc1c(F)cc(NC(=O)OCc2ccc3c(c2)C(=O)N(C2CCC(=O)NC2=O)C3)cc1CN1CCOCC1 (stereo not shown) [Compound 41] | < 1.7 µM | 0.5 to 1.1 µM
27 | Cc1c(Cl)cc(NC(=O)OCc2ccc3c(c2)C(=O)N(C2CCC(=O)NC2=O)C3)cc1OC1CCNC1 (stereo not shown) [Compound 44] | < 1.7 µM | 0.5 to 1.1 µM

Row | Structure (SMILES) | IC50 [1] | IC50 [2]
28 | CN1CCC(Oc2cc(Cl)cc(NC(=O)OCc3ccc4c(c3)C(=O)N(C3CCC(=O)NC3=O)C4)c2)C1 (stereo not shown) [Compound 46] | < 1.1 µM | 
29 | COc1cc(NC(=O)OCc2ccc3c(c2)C(=O)N(C2CCC(=O)NC2=O)C3)cnc1C (stereo not shown) [Compound 51] | < 1.7 µM | 0.5 to 1.1 µM
30 | Cc1c(Cl)cc(NC(=O)OCc2ccc3c(c2)C(=O)N(C2CCC(=O)NC2=O)C3)cc1OCC1CCNC1 (stereo not shown) [Compound 52] | < 1.7 µM | 0.5 to 1.1 µM
31 | O=C1CCC(N2Cc3ccc(COC(=O)Nc4cnc5c(c4)CCC5)cc3C2=O)C(=O)N1 (stereo not shown) [Compound 53] | < 1.7 µM | 0.5 to 1.1 µM
32 | O=C1CCC(N2Cc3ccc(COC(=O)Nc4cnc5c(c4)COCC5)cc3C2=O)C(=O)N1 (stereo not shown) [Compound 54] | < 1.1 µM | 
33 | CCc1cc(NC(=O)OCc2ccc3c(c2)C(=O)N(C2CCC(=O)NC2=O)C3)cnc1C (stereo not shown) [Compound 55] | < 1.7 µM | 0.5 to 1.1 µM
34 | O=C1CCC(N2Cc3ccc(COC(=O)Nc4ccc5c(c4)CCC5)cc3C2=O)C(=O)N1 (stereo not shown) [Compound 56] | < 1.7 µM | 1.1 to 1.7 µM
35 | CC1(c2ccc(NC(=O)OCc3ccc4c(c3)C(=O)N(C3CCC(=O)NC3=O)C4)cc2)CC1 (stereo not shown) [Compound 58] | < 1.7 µM | 0.5 to 1.1 µM
36 | O=C1CCC(N2Cc3ccc(COC(=O)Nc4cc(OC(F)(F)F)ccn4)cc3C2=O)C(=O)N1 (stereo not shown) [Compound 59] | < 1.1 µM | 
37 | O=C1CCC(N2Cc3ccc(COC(=O)Nc4ccc(N5CCCC5)nc4)cc3C2=O)C(=O)N1 (stereo not shown) [Compound 60] | < 1.1 µM | 
38 | CC1(c2ccc(NC(=O)OCc3ccc4c(c3)C(=O)N(C3CCC(=O)NC3=O)C4)cc2)COC1 (stereo not shown) [Compound 62] | < 1.7 µM | 0.5 to 1.1 µM
39 | CCc1cc(NC(=O)OCc2ccc3c(c2)C(=O)N(C2CCC(=O)NC2=O)C3)ccn1 (stereo not shown) [Compound 63] | < 1.1 µM | 
40 | O=C1CCC(N2Cc3ccc(COC(=O)Nc4cnc(N5CCCCC5)nc4)cc3C2=O)C(=O)N1 (stereo not shown) [Compound 64] | < 1.7 µM | 0.5 to 1.1 µM
41 | O=C1CCC(N2Cc3ccc(COC(=O)Nc4ccc(N5CC6CCC(C5)O6)nc4)cc3C2=O)C(=O)N1 (stereo not shown) [Compound 65] | < 1.1 µM | 
42 | O=C1CCC(N2Cc3ccc(COC(=O)Nc4ccc5c(c4)CCO5)cc3C2=O)C(=O)N1 (stereo not shown) [Compound 66] | < 1.1 µM | 
43 | O=C1CCC(N2Cc3ccc(COC(=O)Nc4ccc5c(c4)CCCO5)cc3C2=O)C(=O)N1 (stereo not shown) [Compound 67] | < 1.7 µM | 0.5 to 1.1 µM
44 | Cc1c(Cl)cc(NC(=O)OCc2ccc3c(c2)C(=O)N(C2CCC(=O)NC2=O)C3)cc1OC1CCN(C)C1 (stereo not shown) [Compound 68] | < 1.7 µM | 0.5 to 1.1 µM
45 | CC1CCN(c2ccc(NC(=O)OCc3ccc4c(c3)C(=O)N(C3CCC(=O)NC3=O)C4)cn2)C1 (stereo not shown) [Compound 69] | < 1.1 µM | 
46 | Cc1c(Cl)cc(NC(=O)OCc2ccc3c(c2)C(=O)N(C2CCC(=O)NC2=O)C3)cc1OCC1CCN(C)C1 (stereo not shown) [Compound 70] | < 1.1 µM | 
47 | CCc1cc(NC(=O)OCc2ccc3c(c2)C(=O)N(C2CCC(=O)NC2=O)C3)cc(C)n1 (stereo not shown) [Compound 71] | < 1.7 µM | 1.1 to 1.7 µM
48 | O=C1CCC(N2Cc3ccc(COC(=O)Nc4cnc(N5CCCCC5)c(F)c4)cc3C2=O)C(=O)N1 (stereo not shown) [Compound 72] | < 1.7 µM | 0.5 to 1.1 µM
49 | O=C1CCC(N2Cc3ccc(COC(=O)Nc4ccc(N5CCCC(F)(F)C5)nc4)cc3C2=O)C(=O)N1 (stereo not shown) [Compound 73] | < 1.1 µM | 
50 | CC1CCCN1c1ccc(NC(=O)OCc2ccc3c(c2)C(=O)N(C2CCC(=O)NC2=O)C3)cn1 (stereo not shown) [Compound 74] | < 1.1 µM | 
51 | O=C1CCC(N2Cc3ccc(COC(=O)Nc4ccc(N5CCCCC5)nn4)cc3C2=O)C(=O)N1 (stereo not shown) [Compound 75] | < 1.1 µM | 
52 | O=C1CCC(N2Cc3ccc(COC(=O)Nc4ccc(N5CCOCC5)nc4)cc3C2=O)C(=O)N1 (stereo not shown) [Compound 76] | < 1.7 µM | 0.5 to 1.1 µM
53 | CC1CCCCN1c1ccc(NC(=O)OCc2ccc3c(c2)C(=O)N(C2CCC(=O)NC2=O)C3)cn1 (stereo not shown) [Compound 77] | < 1.7 µM | 0.5 to 1.1 µM

— patent publication US20230348418A1, “ISOINDOLINONE COMPOUNDS” (Monte Rosa Therapeutics, Inc., priority 2021, published 2023)
